Results on five compounds are retold here after publication PMC10535741, “Styrylpyridinium Derivatives for Fluorescent Cell Imaging” (Pharmaceuticals, 2023).

Data set [1] is described as follows: in vitro. Conditions: mouse. Type of data set: cell-based, murine. The text has this:
(§1) For selected compounds, 6a–6f, we performed a determination of the cytotoxicity in a wider variety of cancer and non-cancerous cell lines (see Table S2, Supplementary Materials) in order to learn the characteristic features of selectivity or the similarity of biological properties.
(§2) The HT-1080 (human connective tissue fibrosarcoma, ATCC® CCL-121™), MH-22A (mouse hepatocarcinoma, ECACC Cat. No. 96121721), A-549 (human lung carcinoma, ATCC® CCL-185™), NIH3T3 (Swiss Albino mouse embryo fibroblast, ECACC Cat. No. 93061524), Hek293 (human embryonic kidney, ATCC® CRL-1573™), BHK-21 (Syrian hamster kidney, ATCC® CCL-10™), A-431 (human epidermoid carcinoma, ATCC® CRL-1555™), Saos-2 (human osteosarcoma, ATCC® HTB-85™), HeLa (human epitheloid cervix carcinoma, ATCC® CCL-2™), U937 (human myeloid leukaemia, ATCC® CRL-1593.2™), C6 (rat glioma, ATCC® CCL-107™), and B16-F10 (murine melanoma, ATCC® CRL-6475™) cell lines were obtained from the American Type Culture Collection (ATCC) and European Collection of Authenticated Cell Cultures (ECACC).
(§3) HT-1080, MH-22A, A-549, NIH3T3, BHK-21, A-431, HeLa, and B16-F10 cells were cultured in Dulbecco’s Modified Eagle’s Medium (DMEM) with 2 mM glutamine and 10% foetal bovine serum (FBS). Hek293 cells were cultured in Eagle’s Minimum Essential Medium with 10% foetal bovine serum. U937 cells were cultured in RPMI-1640 Medium with 2 mM glutamine and 10% foetal bovine serum. C6 cells were cultured in Ham’s F12 Medium with 2 mM glutamine and 10% foetal bovine serum. Saos-2 cells were cultured in McCoy’s 5a Medium with 2 mM glutamine and 10% foetal bovine serum. The cells were incubated at 37 °C with 5% CO2, 95% air, and complete humidity. Once ~90% confluence was reached, they were detached using 0.05% trypsin/EDTA and counted. The cells were plated at optimally determined densities for the logarithmic phase of growth. These cells were then suspended at a concentration of 4000 cells/well for HT-1080, MH-22A, A-549, NIH3T3, BHK-21, A-431, HeLa, B16-F10, Hek293, and Saos-2 cells and a concentration of 9000 cells/well for U937, C6, Hek293, and GM08402 cells and added onto a 96-well plate. For background absorption, some wells remained cell free, i.e., as a blank control. Cells were incubated for 72 h at 37 °C and 5% CO2 where they were exposed to a media containing serial dilutions of the investigated compounds (n = 3). Cell viability was measured using the 3-(4,5-dimethylthiazol-2-yl)-2,5-diphenyl-tetrazolium bromide (MTT) assay. In brief, after incubating with compounds, the culture medium was removed and fresh medium with 0.2 mg/mL MTT was added to each well of the plate. After incubation (3 h, 37 °C, 5% CO2), the medium with MTT solution was removed and replaced with 200 µL DMSO and 25 µL Sorenson’s glycine buffer (glycine 0.1 M, NaCl 0.1 M, pH: 10.5 with 0.1 M NaOH). The plate was shaken for 15 min at room temperature and the optical density (OD) of the wells was determined using a multichannel spectrophotometer (Thermo Scientific Multiskan EX) at 540 nm. The quantity of the control cells was taken in calculations as 100%. The IC50 value was calculated using the program Graph Pad Prism® 3.0. […]

The next data set has as its system C6 (rat glioma). Description: in vitro. Type of data set: cell-based.
Source text: as §1, §2, §3

For data set [2], the system named is HeLa (human epitheloid cervix carcinoma). Kind of data set: in vitro. Type of data set: cell-based.
Source text: as §1, §2
(§4) HT-1080, MH-22A, A-549, NIH3T3, BHK-21, A-431, HeLa, and B16-F10 cells were cultured in Dulbecco’s Modified Eagle’s Medium (DMEM) with 2 mM glutamine and 10% foetal bovine serum (FBS). Hek293 cells were cultured in Eagle’s Minimum Essential Medium with 10% foetal bovine serum. U937 cells were cultured in RPMI-1640 Medium with 2 mM glutamine and 10% foetal bovine serum. C6 cells were cultured in Ham’s F12 Medium with 2 mM glutamine and 10% foetal bovine serum. Saos-2 cells were cultured in McCoy’s 5a Medium with 2 mM glutamine and 10% foetal bovine serum. The cells were incubated at 37 °C with 5% CO2, 95% air, and complete humidity. Once ~90% confluence was reached, they were detached using 0.05% trypsin/EDTA and counted. The cells were plated at optimally determined densities for the logarithmic phase of growth. These cells were then suspended at a concentration of 4000 cells/well for HT-1080, MH-22A, A-549, NIH3T3, BHK-21, A-431, HeLa, B16-F10, Hek293, and Saos-2 cells and a concentration of 9000 cells/well for U937, C6, Hek293, and GM08402 cells and added onto a 96-well plate. For background absorption, some wells remained cell free, i.e., as a blank control. Cells were incubated for 72 h at 37 °C and 5% CO2 where they were exposed to a media containing serial dilutions of the investigated compounds (n = 3). Cell viability was measured using the 3-(4,5-dimethylthiazol-2-yl)-2,5-diphenyl-tetrazolium bromide (MTT) assay. In brief, after incubating with compounds, the culture medium was removed and fresh medium with 0.2 mg/mL MTT was added to each well of the plate. After incubation (3 h, 37 °C, 5% CO2), the medium with MTT solution was removed and replaced with 200 µL DMSO and 25 µL Sorenson’s glycine buffer (glycine 0.1 M, NaCl 0.1 M, pH: 10.5 with 0.1 M NaOH). The plate was shaken for 15 min at room temperature and the optical density (OD) of the wells was determined using a multichannel spectrophotometer (Thermo Scientific Multiskan EX) at 540 nm. The quantity of the control cells was taken in calculations as 100%. The IC50 value was calculated using the program Graph Pad Prism® 3.0.
(§5) The HT-1080 (human connective tissue fibrosarcoma, ATCC® CCL-121™), MH-22A (mouse hepatocarcinoma, ECACC Cat.No. 96121721), A-549 (human lung carcinoma, ATCC® CCL-185™), NIH 3T3 (mouse Swiss Albino embryo fibroblast, ECACC Cat.No. 93061524), Hek293 (human embryonic kidney, ATCC® CRL-1573™), BHK-21 (hamster Syrian kidney, ATCC® CCL-10™), A-431 (human epidermoid carcinoma, ATCC® CRL-1555™), Saos-2 (human oste osarcoma, ATCC® HTB-85™) HeLa (human epitheloid cervix carcinoma, ATCC® CCL-2™), U937 (human myeloid leukaemia, ATCC® CRL-1593.2™), C6 (rat glioma, ATCC® CCL-107™), B16-F10 (murine melanoma, ATCC® CRL-6475™) cell lines were obtained from American Type Culture Collection (ATCC) and European Collection of Authenticated Cell Cultures […]
(§6) Table S2. […]

Data set [3] relates to A-549 (human lung carcinoma). Kind of data set: in vitro. The class given is cell-based.
Source text: as §1, §2, §4, §5, §6

The test system of data set [4] is Hek293 (human embryonic kidney). Description: in vitro. Type of data set: cell-based.
Source text: as §1, §2, §4, §5, §6

Data set [5] has as its system A-431 (human epidermoid carcinoma). Kind of data set: in vitro. Type of data set: cell-based.
Source text: as §1, §2, §4, §5, §6

Data set [6] relates to Saos-2 (human osteosarcoma). Description: in vitro. Type of data set: cell-based.
Source text: as §1, §2, §4, §5, §6

In data set [7] the test system is U937 (human myeloid leukaemia). Kind of data set: in vitro. Type of data set: cell-based.
Source text: as §1, §2, §4, §5, §6

In data set [8] the test system is BHK-21 (Syrian hamster kidney). Kind of data set: MTT cytotoxicity assay, BHK-21. The class given is cell-based.
Source text: as §1, §2, §4, §5, §6
On the technique in general: Tetrazolium dyes change colour on reduction, which living cells bring about.

Data set [9] concerns NIH3T3 (Swiss Albino mouse embryo fibroblast). Description: in vitro. The class given is cell-based.
Source text: as §1, §2, §4, §5, §6

A further data set concerns BHK-21 cells. Description: Cell passaging assay, flow cytometry on day 6. The note with it: BHK-21, passaged twice, six days of culture; 25 μM 6e or 1 μM Deep Red. The class given is cell-based, Syrian hamster. As for the experimental part:
In order to assess the stability of staining after prolonged cell culture, the stained BHK-21 cells (Day 1) were passaged twice (Days 2 and 4) and cultured for six days in total (Day 6, Figure 4). On day 6, the cells were collected and analysed by flow cytometry. […] It can be concluded that, in contrast to the Deep Red cell tracker, SP compound 6e effectively stains cells and can be used for up to 6 days of cell culture.
For the cell passaging, on day 0, BHK-21 cells were plated on a 6-well plate with a seeding density of 1.5 × 10^5 cells per well. On day 1, the cells were stained with 25 μM compound 6e or 1 μM CellTracker™ Deep Red dye as described above. […] On day 6, cells were collected for flow cytometry analysis. The cells were kept at 4 °C and analysed as described above.
A general note: A flow cytometer gives signals particle by particle.

Data set [10] is described as follows: in vitro. Conditions: mouse.
Experimental: (§7) In this study, we used murine bone-marrow-derived macrophages (BMDMs) to evaluate the staining potential of the 6e compound in primary immune cells. […] To assess toxicity, the BMDMs were stained with various concentrations (0.1–100 μM) of compound 6e, and after 24 h, cell viability was measured using the CCK-8 assay (Figure 5).
(§8) To determine the cytotoxicity of the SP compound 6e, the cells were stained with various concentrations of the dye (0, 0.1, 1, 5, 10, and 100 μM). Briefly, 2 × 10^4 cells were plated in a 96-well plate in 100 μL of the medium. After 24 h, the cells were washed once and a solution of compound 6e in PBS was added to the cells. The cells were incubated in a humidified 5% CO2 incubator at 37 °C for 15–20 min. Then, the dye solution was replaced with medium. […] After 24 h, the medium was replaced with 10 μL of CCK-8 reagent in 100 μL of fresh medium. The cells were incubated in a humidified 5% CO2 incubator at 37 °C for 1–4 h. The absorbance at 450 nm was measured using a microplate spectrophotometer (BioTek Instruments, Winooski, VT, USA). Cell viability was calculated as a percentage of non-treated cell absorbance. IC50 values were calculated as the concentration at which 50% of the cells were viable.
Data set [11] deals with murine bone-marrow-derived macrophages (BMDMs). Kind of data set: cells. The note with it: Mus musculus, BMDM, 24 h, read-out: IC50 (BMDM viability).
Experimental: as §7, §8
Setting [12] is: cancer cell line, MTT, 72 h, read-out: Cytotoxicity IC50 B16-F10.

Like-named read-outs stand apart in the source and are kept apart here.

Consider `CCCCCCCCCCCC[n+]1ccc(C=Cc2cc3c4c(c2)CCCN4CCC3)cc1.[Br-]` [Compound 6d, 1-dodecyl-4-(2-(2,3,6,7-tetrahydro-1H,5H-pyrido[3,2,1-ij]quinolin-9-yl)vinyl)pyridin-1-ium bromide], for which the IC50 – broadly, the concentration that gives 50% inhibition – at 72 h in the data set “in vitro [1]” (setting [12]) was 0.113 µg/mL.

As to `CCCCCCCCCCCCCCCC[n+]1ccc(C=Cc2cc(OC)c(OC)c(OC)c2)cc1.[Br-]` [Compound 6b], the “Cytotoxicity IC50 C6” value in the data set on C6 (rat glioma) was determined as 1.23 µg/mL. Further, the “Cytotoxicity IC50 HeLa” value in [2] is listed as 0.82 µg/mL. Further, the “Cytotoxicity IC50 A-549” value in [3] is on record as 0.98 µg/mL. Also, in [4], the “Cytotoxicity IC50 Hek-293” value is on record as 0.38 µg/mL. Moreover, the “Cytotoxicity IC50 A-431” value in data set [5] came out at 1.10 µg/mL. Also, the “Cytotoxicity IC50 Saos-2” value in [6] is 0.60 µg/mL. In addition, in data set [7], the “Cytotoxicity IC50 U937” value is on record as 1.39 µg/mL. Moreover, in data set [8], the “Cytotoxicity IC50 BHK-21” value was 1.11 µg/mL. The “Cytotoxicity IC50 NIH3T3” value in [9] was found to be 1.02 µg/mL.

As for `CCCCCCCCCCCC[n+]1ccc(C=Cc2cc(OC)c(OC)c(OC)c2)cc1.[Br-]` [Compound 6a, 4-(3,4,5-trimethoxystyryl)-N-dodecylpyridinium bromide], the “times lower cytotoxicity of 6a compared with 6d, BHK-21” value in [8] (Syrian hamster, 72 h) is recorded as 12.5 times. Further, the IC50 at 72 h in the data set “in vitro [1]” (setting [12]) was 0.8 µg/mL. The “times lower cytotoxicity of 6a compared with 6d, NIH3T3” value in data set [9] (mouse, 72 h) amounted to 21.9 times.

For `CCCCCCCCCCCCCCCC[n+]1ccc(C=CC=Cc2cc3c4c(c2)CCCN4CCC3)cc1.[Br-]` [Compound 6e, 1-hexadecyl-4-(4-(2,3,6,7-tetrahydro-1H,5H-pyrido[3,2,1-ij]quinolin-9-yl)buta-1,3-dien-1-yl)pyridin-1-ium bromide], the “positive fluorescent cells on day 6” value with BHK-21 cells was found to be 15.0 ± 0.7%. The viability (as a rule, the share of living cells, or the viability signal relative to a control) at 24 h, 5 µM in the data set “in vitro [10]” came out at 79.1 ± 1.2%. Besides, in [11], the half-maximal inhibitory concentration (IC50) came out at 9.2 ± 1.5 µM. Also, in the data set “in vitro [1]” (setting [12]), the IC50 at 72 h turned out to be 2.9 µg/mL.

For the compound `CCCCCCCCCCCCCCCC[n+]1ccc(C=CC=Cc2ccc(OC)cc2)cc1.[Br-]` [Compound 6c, 1-hexadecyl-4-(4-(4-methoxyphenyl)buta-1,3-dien-1-yl)pyridin-1-ium bromide], the 50% inhibitory concentration (IC50) at 72 h in the data set “in vitro [1]” was 0.49 µg/mL.
